Each compound was assayed against T1, Chymase (Homo sapiens, UniProt P23946) (assay: Enzyme Inhibition Assay).
T1 sequence (P23946 whole entry): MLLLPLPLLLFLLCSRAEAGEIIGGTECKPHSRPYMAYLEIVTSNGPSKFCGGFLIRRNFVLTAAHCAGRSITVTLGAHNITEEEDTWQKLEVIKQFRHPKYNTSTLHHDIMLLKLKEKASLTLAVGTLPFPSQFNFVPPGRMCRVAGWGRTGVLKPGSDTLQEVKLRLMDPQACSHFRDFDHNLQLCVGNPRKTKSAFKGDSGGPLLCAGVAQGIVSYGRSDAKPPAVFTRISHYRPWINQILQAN
Excerpt: Enzyme inhibitory activity using recombinant human chymase.

Compound | IC50 [µM]
Cc1ccc(S(=O)(=O)n2c(O)c3n(c2=O)-c2ccccc2C3)cc1C [Tetrahydroisoquinoline hydantoin derivative, 3b] | 206
Cc1ccc(S(=O)(=O)N2C(=O)[C@@H]3Cc4ccccc4CN3C2=O)cc1 [Tetrahydroisoquinoline hydantoin derivative, 5a] | 49
Cc1ccc(S(=O)(=O)n2c(O)c3n(c2=O)Cc2ccccc2C3)cc1C [Tetrahydroisoquinoline hydantoin derivative, 5b] | 42.8

Second part, the compound after the results:

IC50 [µM] | Compound
172 | Cc1ccc(S(=O)(=O)n2c(O)c3n(c2=O)-c2ccccc2C3)cc1 [Tetrahydroisoquinoline hydantoin derivative, 3a]
374 | O=c1n2c(c(O)n1S(=O)(=O)c1ccc(Cl)c(Cl)c1)Cc1ccccc1-2 [Tetrahydroisoquinoline hydantoin derivative, 3c]
86.8 | O=c1n2c(c(O)n1S(=O)(=O)c1ccc3ccccc3c1)Cc1ccccc1-2 [Tetrahydroisoquinoline hydantoin derivative, 3d]
17.5 | O=c1n2c(c(O)n1S(=O)(=O)c1ccc3ccccc3c1)Cc1ccccc1C2 [Tetrahydroisoquinoline hydantoin derivative, 5d]

From BindingDB's records for doi:10.1080/14756360310001650200 (Universit&Eacute, 2004)
